Literature values as cited in patent US20120295320A1, “APPARATUS AND METHOD FOR TREATMENT OF MICROORGANISMS DURING PROPAGATION, CONDITIONING AND FERMENTATION USING STABILIZED CHLORINE DIOXIDE/SODIUM CHLORITE WITH HOPS ACID EXTRACTS” (RESONANT BIOSCIENCES, LLC, priority 2010, published 2012).

Test system: Weisella confusa
Settings: background statement, fermentation mixture

For Virginiamycin, the “concentration required to inhibit growth of Weisella confusa” value is given as “over 25 mg/L”.
